# Calls of active or inactive are those of the source. How the calls were made is not given here.
# System: CCRIS mutagenicity, Ames/micronucleus/aberration tests
# Assay: CCRIS mutagenicity studies
# [1] = Test System: AMES SALMONELLA TYPHIMURIUM, Strain/Indicator: TA98, Metabolic Activation: NONE, Method: STANDARD PLATE
# [2] = Test System: AMES SALMONELLA TYPHIMURIUM, Strain/Indicator: TA100, Metabolic Activation: NONE, Method: STANDARD PLATE
# [3] = Test System: AMES SALMONELLA TYPHIMURIUM, Strain/Indicator: TA97, Metabolic Activation: NONE, Method: PREINCUBATION
# [4] = Test System: AMES SALMONELLA TYPHIMURIUM, Strain/Indicator: TA98, Metabolic Activation: NONE, Method: PREINCUBATION
# [5] = Test System: AMES SALMONELLA TYPHIMURIUM, Strain/Indicator: TA1535, Metabolic Activation: NONE, Method: PREINCUBATION
# [6] = Test System: AMES SALMONELLA TYPHIMURIUM, Strain/Indicator: TA100, Metabolic Activation: NONE, Method: PREINCUBATION
structure (smiles),measurement,setting,value
COc1cc(O[C@@H]2O[C@H](CO)[C@@H](O)[C@H](O)[C@H]2O)c2c(=O)c3c(O)ccc(O)c3oc2c1,mutagenic call,"Test System: AMES SALMONELLA TYPHIMURIUM, Strain/Indicator: TA97, Metabolic Activation: RAT, LIVER, S-9, PHENOBARBITAL AND 5,6-BENZOFLAVONE, BETA-GLUCOSIDASE, Method: PREINCUBATION",active; positive
same,mutagenic call,"Test System: AMES SALMONELLA TYPHIMURIUM, Strain/Indicator: TA98, Metabolic Activation: RAT, LIVER, S-9, PHENOBARBITAL AND 5,6-BENZOFLAVONE, BETA-GLUCOSIDASE, Method: PREINCUBATION",inactive; negative
same,mutagenic call,"Test System: AMES SALMONELLA TYPHIMURIUM, Strain/Indicator: TA100, Metabolic Activation: RAT, LIVER, S-9, PHENOBARBITAL AND 5,6-BENZOFLAVONE, BETA-GLUCOSIDASE, Method: PREINCUBATION",active; positive
same,mutagenic call,"Test System: AMES SALMONELLA TYPHIMURIUM, Strain/Indicator: TA2637, Metabolic Activation: RAT, LIVER, S-9, PHENOBARBITAL AND 5,6-BENZOFLAVONE, BETA-GLUCOSIDASE, Method: PREINCUBATION",active; positive
CN(C)c1ccc(N=O)cc1,mutagenic call,"Test System: AMES SALMONELLA TYPHIMURIUM, Strain/Indicator: TA100, Metabolic Activation: NONE, Method: FLUCTUATION TEST",active; positive
COc1ccc([N+](=O)[O-])c2c(NCCCN(C)C)c3ccccc3nc12,mutagenic call,[1],active; positive
same,mutagenic call,[2],inactive; negative
Nc1ccn([C@@H]2O[C@H](COP(=O)(O)O)[C@@H](O)[C@H]2O)c(=O)n1,mutagenic call,[3],inactive; negative
same,mutagenic call,"Test System: AMES SALMONELLA TYPHIMURIUM, Strain/Indicator: TA97, Metabolic Activation: RAT, LIVER, S-9, AROCLOR 1254, Method: PREINCUBATION",inactive; negative
same,mutagenic call,"Test System: AMES SALMONELLA TYPHIMURIUM, Strain/Indicator: TA102, Metabolic Activation: NONE, Method: PREINCUBATION",inactive; negative
same,mutagenic call,"Test System: AMES SALMONELLA TYPHIMURIUM, Strain/Indicator: TA102, Metabolic Activation: RAT, LIVER, S-9, AROCLOR 1254, Method: PREINCUBATION",inactive; negative
C=CC(C)(C)c1cc2cc3c(cc2oc1=O)OC(C(C)(C)OC(C)=O)C3 (stereo unspecified),mutagenic call,[1],inactive; negative
same,mutagenic call,"Test System: AMES SALMONELLA TYPHIMURIUM, Strain/Indicator: TA98, Metabolic Activation: RAT, LIVER, S-9, PHENOBARBITAL, Method: STANDARD PLATE",inactive; negative
O=CC(Cl)(Cl)Cl,mutagenic call,"Test System: AMES SALMONELLA TYPHIMURIUM, Strain/Indicator: TA97, Metabolic Activation: HAMSTER, LIVER, S-9, AROCLOR 1254 (10%), Method: PREINCUBATION",inactive; negative
same,mutagenic call,[3],inactive; negative
same,mutagenic call,"Test System: AMES SALMONELLA TYPHIMURIUM, Strain/Indicator: TA97, Metabolic Activation: RAT, LIVER, S-9, AROCLOR 1254 (10%), Method: PREINCUBATION",inactive; negative
same,mutagenic call,"Test System: AMES SALMONELLA TYPHIMURIUM, Strain/Indicator: TA98, Metabolic Activation: HAMSTER, LIVER, S-9, AROCLOR 1254 (10%), Method: PREINCUBATION",inactive; negative
same,mutagenic call,[4],inactive; negative
same,mutagenic call,"Test System: AMES SALMONELLA TYPHIMURIUM, Strain/Indicator: TA98, Metabolic Activation: RAT, LIVER, S-9, AROCLOR 1254 (10%), Method: PREINCUBATION",inactive; negative
same,mutagenic call,"Test System: AMES SALMONELLA TYPHIMURIUM, Strain/Indicator: TA100, Metabolic Activation: HAMSTER, LIVER, S-9, AROCLOR 1254 (5, 10 OR 30%), Method: PREINCUBATION",inactive; negative
same,mutagenic call,"Test System: AMES SALMONELLA TYPHIMURIUM, Strain/Indicator: TA100, Metabolic Activation: RAT, LIVER, S-9, AROCLOR 1254 (5, 10 OR 30%), Method: PREINCUBATION",inactive; negative
same,mutagenic call,"Test System: AMES SALMONELLA TYPHIMURIUM, Strain/Indicator: TA100, Metabolic Activation: RAT, LIVER, S-9, Method: PREINCUBATION",active; positive
same,mutagenic call,"Test System: AMES SALMONELLA TYPHIMURIUM, Strain/Indicator: TA1535, Metabolic Activation: HAMSTER, LIVER, S-9, AROCLOR 1254 (10%), Method: PREINCUBATION",inactive; negative
same,mutagenic call,[5],inactive; negative
same,mutagenic call,"Test System: AMES SALMONELLA TYPHIMURIUM, Strain/Indicator: TA1535, Metabolic Activation: RAT, LIVER, S-9, AROCLOR 1254 (10%), Method: PREINCUBATION",inactive; negative
CC(=O)OCN(C)[N+](=O)[O-],mutagenic call,"Test System: AMES SALMONELLA TYPHIMURIUM, Strain/Indicator: TA100, Metabolic Activation: RAT, LIVER, S-9, AROCLOR 1254, Method: PREINCUBATION",active; positive
CCCCCCCCCCCCCCCCN,mutagenic call,"Test System: AMES SALMONELLA TYPHIMURIUM, Strain/Indicator: TA97, Metabolic Activation: HAMSTER, LIVER, S-9, AROCLOR 1254 (10 OR 30%), Method: PREINCUBATION",inactive; negative
same,mutagenic call,[3],inactive; negative
same,mutagenic call,"Test System: AMES SALMONELLA TYPHIMURIUM, Strain/Indicator: TA97, Metabolic Activation: RAT, LIVER, S-9, AROCLOR 1254 (10 OR 30%), Method: PREINCUBATION",inactive; negative
same,mutagenic call,"Test System: AMES SALMONELLA TYPHIMURIUM, Strain/Indicator: TA98, Metabolic Activation: HAMSTER, LIVER, S-9, AROCLOR 1254 (10 OR 30%), Method: PREINCUBATION",inactive; negative
same,mutagenic call,[4],inactive; negative
same,mutagenic call,"Test System: AMES SALMONELLA TYPHIMURIUM, Strain/Indicator: TA98, Metabolic Activation: RAT, LIVER, S-9, AROCLOR 1254 (10 OR 30%), Method: PREINCUBATION",inactive; negative
same,mutagenic call,"Test System: AMES SALMONELLA TYPHIMURIUM, Strain/Indicator: TA100, Metabolic Activation: HAMSTER, LIVER, S-9, AROCLOR 1254 (10 OR 30%), Method: PREINCUBATION",inactive; negative
same,mutagenic call,[6],inactive; negative
same,mutagenic call,"Test System: AMES SALMONELLA TYPHIMURIUM, Strain/Indicator: TA100, Metabolic Activation: RAT, LIVER, S-9, AROCLOR 1254 (10 OR 30%), Method: PREINCUBATION",inactive; negative
same,mutagenic call,"Test System: AMES SALMONELLA TYPHIMURIUM, Strain/Indicator: TA1535, Metabolic Activation: HAMSTER, LIVER, S-9, AROCLOR 1254 (10 OR 30%), Method: PREINCUBATION",inactive; negative
same,mutagenic call,[5],inactive; negative
same,mutagenic call,"Test System: AMES SALMONELLA TYPHIMURIUM, Strain/Indicator: TA1535, Metabolic Activation: RAT, LIVER, S-9, AROCLOR 1254 (10 OR 30%), Method: PREINCUBATION",inactive; negative
CC(=O)OCc1c2cccc3ccc4cc5cccc6ccc1c(c65)c4c32,mutagenic call,[1],active; positive
same,mutagenic call,[2],inactive; negative
O=[N+]([O-])c1ccc(/C=C/c2ccc([N+](=O)[O-])cc2S(=O)(=O)O)c(S(=O)(=O)O)c1,mutagenic call,[4],inactive; negative
same,mutagenic call,"Test System: AMES SALMONELLA TYPHIMURIUM, Strain/Indicator: TA98, Metabolic Activation: RAT LIVER S-9, PHENOBARBITAL AND BETA-NAPHTHOFLAVONE, Method: PREINCUBATION",inactive; negative
same,mutagenic call,[6],inactive; negative
same,mutagenic call,"Test System: AMES SALMONELLA TYPHIMURIUM, Strain/Indicator: TA100, Metabolic Activation: RAT LIVER S-9, PHENOBARBITAL AND BETA-NAPHTHOFLAVONE, Method: PREINCUBATION",inactive; negative
same,mutagenic call,[5],inactive; negative
same,mutagenic call,"Test System: AMES SALMONELLA TYPHIMURIUM, Strain/Indicator: TA1535, Metabolic Activation: RAT LIVER S-9, PHENOBARBITAL AND BETA-NAPHTHOFLAVONE, Method: PREINCUBATION",inactive; negative
same,mutagenic call,"Test System: AMES SALMONELLA TYPHIMURIUM, Strain/Indicator: TA1537, Metabolic Activation: NONE, Method: PREINCUBATION",inactive; negative
same,mutagenic call,"Test System: AMES SALMONELLA TYPHIMURIUM, Strain/Indicator: TA1537, Metabolic Activation: RAT LIVER S-9, PHENOBARBITAL AND BETA-NAPHTHOFLAVONE, Method: PREINCUBATION",inactive; negative
same,mutagenic call,"Test System: E.COLI, Strain/Indicator: WP2UVRA/PKM101, Metabolic Activation: NONE, Method: PREINCUBATION",inactive; negative
same,mutagenic call,"Test System: E.COLI, Strain/Indicator: WP2UVRA/PKM101, Metabolic Activation: RAT LIVER S-9, PHENOBARBITAL AND BETA-NAPHTHOFLAVONE, Method: PREINCUBATION",inactive; negative
Nc1nc(N)nc(-c2ccc([N+](=O)[O-])o2)n1,mutagenic call,"Test System: AMES SALMONELLA TYPHIMURIUM, Strain/Indicator: TA100, Metabolic Activation: RAT, LIVER, S-9, KC500 OR PHENOBARBITAL, Method: LIQUID SUSPENSION",active; positive
